The values below are quoted from earlier work in PMC3026871 (Cancer chemotherapy and pharmacology, 2010).

For this data set, the target named is Aurora A kinase in skin basal epithelial cells (Homo sapiens, UniProt O14965). The following applies: subsequent studies, similar times, identical assays; cited from earlier work.
Sequence of Aurora A kinase in skin basal epithelial cells (O14965 whole entry): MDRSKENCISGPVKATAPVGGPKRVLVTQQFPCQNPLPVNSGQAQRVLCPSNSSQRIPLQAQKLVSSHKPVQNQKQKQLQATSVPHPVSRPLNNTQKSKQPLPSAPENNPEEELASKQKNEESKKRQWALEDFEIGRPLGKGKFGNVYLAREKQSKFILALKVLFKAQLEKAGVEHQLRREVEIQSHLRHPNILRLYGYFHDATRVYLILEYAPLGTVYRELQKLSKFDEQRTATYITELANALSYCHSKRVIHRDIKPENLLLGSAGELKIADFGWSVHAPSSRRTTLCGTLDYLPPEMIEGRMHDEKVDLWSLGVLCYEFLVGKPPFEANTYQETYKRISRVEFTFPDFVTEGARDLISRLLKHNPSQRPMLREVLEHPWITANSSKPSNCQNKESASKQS

Consider `COc1cc(Nc2ncc3c(n2)-c2ccc(Cl)cc2C(c2c(F)cccc2OC)=NC3)ccc1C(=O)O` [MLN8237], for which the “pharmacodynamic activity in skin biopsies” value is reported as “dose-dependent pharmacodynamic activity in skin biopsies”.
